# Activity calls are given as the source filed them.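 The calls were made as follows: active = compounds with an IC50 below 50 µM against the phosphatase; inactive = IC50 at 50 µM or above.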
# Target: Serine/threonine-protein phosphatase 5 (Homo sapiens) (UniProt P53041)
# Test: inhibition of PP5 catalytic domain, physiologic substrate – biochemical, radiolabeled phosphohistone, dose response, round 5, orthogonal assay, late-stage follow-up (AID 624439)
# Conditions: purified PP5c, 33P-phosphohistone dephosphorylation, scintillation
# Serine/threonine-protein phosphatase 5 (Homo sapiens), sequence (P53041 whole entry, looked up, the tested form may be a part): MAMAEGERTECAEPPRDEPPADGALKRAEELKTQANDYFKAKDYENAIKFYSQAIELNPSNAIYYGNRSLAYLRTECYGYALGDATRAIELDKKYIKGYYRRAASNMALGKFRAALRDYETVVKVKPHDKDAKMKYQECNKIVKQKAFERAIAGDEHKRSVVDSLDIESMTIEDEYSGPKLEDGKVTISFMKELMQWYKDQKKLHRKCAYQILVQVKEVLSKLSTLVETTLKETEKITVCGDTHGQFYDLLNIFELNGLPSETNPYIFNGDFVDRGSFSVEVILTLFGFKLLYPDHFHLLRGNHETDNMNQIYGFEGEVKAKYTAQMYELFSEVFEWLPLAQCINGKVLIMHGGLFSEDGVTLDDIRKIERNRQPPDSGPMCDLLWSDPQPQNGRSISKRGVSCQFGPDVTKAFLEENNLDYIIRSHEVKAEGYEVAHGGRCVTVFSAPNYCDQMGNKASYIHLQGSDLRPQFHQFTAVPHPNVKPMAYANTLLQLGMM
row,Structure (SMILES),IC50
1,CC(C)Oc1ccccc1-c1n[nH]nc1C(=O)O,17.1 µM
2,O=C(O)c1n[nH]nc1-c1ccccc1F,42.2 µM
3,O=C(O)c1n[nH]nc1-c1cccc(F)c1,inactive
4,O=C(O)c1n[nH]nc1-c1ccccc1O,31.4 µM

# The next lines start with the values.
row,IC50,Structure (SMILES)
1,inactive,COc1ccc(-c2n[nH]nc2C(=O)O)cc1
2,49 µM,COc1cccc(-c2n[nH]nc2C(=O)O)c1
3,inactive,O=C(O)c1n[nH]nc1-c1ccc(F)cc1
4,29.7 µM,COc1ccccc1-c1n[nH]nc1C(=O)O
